Experimental data reported in patent publication US20230102836A1, “Amoebicidal Compositions for Contact Lens Solutions” (University of the West of Scotland, priority 2019, published 2023).
Converted amounts (≈) assume the structure as drawn. “And” between values parts separate entries of the source, which are not always exact repeats. Equal entries are not always repeated. Where two headings read alike, the source gives them in different places. Marks after values point to notes of the source that are not given here. Values belong to the compound of their own block, whether it stands above or below them.

Key:
[1] = system: A. castellanii trophozoites; test: Cytotoxicity assay on trophozoites (resazurin / alamarBlue); format: cell-based, Acanthamoeba castellanii ATCC 50370; conditions: for IC50: Acanthamoeba castellanii
Procedure: (§1) Acanthamoeba castellanii ATCC 50370 trophozoites and cysts were cultured in Peptone Glucose (PG) medium and encystment medium (Chagla A H, Griffiths A J (1974) Microbiology: 85(1): 139-145) respectively at 25° C. Cysts were prepared by incubating trophozoites for 8 days in encystment medium and integrity validated with calcofluor (0.25 μg/ml) assay (Gatti S et al (2010) J. Med. Microbiol.; 59: 1324-1330) or sodium dodecyl sulfate (SDS, 0.5% w/v) disintegration assay (Dudley R et al (2005) Acta Trop.; 9: 100-8) and microscopic observation.
The compounds used in this study all contained alkyl-carbon chains: three APCs [dodecyl-PC (APC12), tetradecyl-PC. (APC14) and hexadecyl-PC (APC16)] (Anatrace) and four QACs [docdecyl-TMAB (QAC12), tetradecyl-TMAB (QAC14), hexadecyl-TMAB (QAC16) and octadecyl-TMAB (QAC18)](Sigma). All were prepared to a stock concentration of 1 mg/ml and diluted as required by the experimental protocol in the cytotoxicity assays. […]
[…] Resazurin (7-Hydroxy-31-phenoxazin-3-one 10-oxide; 5 mg/ml; McBride J et al (2005) J. Clin. Microbiol.; 43: 629-634) and trypan blue (0.4 μg/ml; Mafra C S P et al (2013) Investig. Ophthalmol. Vis. Si.; 54: 6363-6372) were then added to trophozoites and cysts respectively after being exposed to the compounds and the cell viability estimated microscopically and from changes in absorbance (at 595 nm and 570 nm) respectively.
(§2) Efficacy was expressed as a percentage of untreated controls for each drug concentration used and the data used to calculate the IC50. Cell density was estimated using the modified Neubaur hemocytometer and expressed as cells/ml.

[2] = cited from earlier work; for CMC value: APCs
[3] = system: A. castellanii trophozoites; test: Morphometric analysis of trophozoites; format: cell-based, Acanthamoeba castellanii ATCC 50370
Procedure: Acanthamoeba trophozoites ([…]) incubated without (FIG. 2A), with QAC18 at 37.5 μg/ml for 1 h at 25° C. (FIG. 2B), and 0.5% SDS for 30 min (FIG. 2C). QAC18 reduced trophozoites sizes from 29.02±0.23 (FIG. 2A) to 7.87 f 0.93 (FIG. 2B) which disintegrated after 30 min treatment with SDS (FIG. 2C).
A. castellanii trophozoites incubated with and without QAC for a duration determined by experimental protocol were examined microscopically and their sizes measured using the Open Laboratory (Improvision) calibration graticule. The mean body sizes were determined.

[4] = system: A. castellanii trophozoites; test: Drug wash-out / alamarBlue-reversion assay, trophozoites; format: cell-based, Acanthamoeba castellanii ATCC 50370
[5] = system: A. castellanii trophozoites; test: Combined assay with fixed QAC12 (alamarBlue); format: cell-based, Acanthamoeba castellanii ATCC 50370; conditions: for IC50: Acanthamoeba castellanii, 96 h, 96 h at 25° C.
Procedure: Acanthamoeba trophozoites (10^5 cells/ml. n=5/treatment) treated with 100 μg/ml doubly diluted to 0.06 μg/ml of QAC18 (a,b) or APC16 (c,d) for 96 h at 25° C. […] Similarly. APC16 alone at the same concentration (closed circle, FIG. 6C, FIG. 6D) in combination with QAC12 at 18.75 μg/ml (open squares, d) QAC12 at […] (open squares, FIG. 6C). Data are mean absorbance at 595 nm t SD; n=4 independent experiments performed in triplicates. IC50s were not statistically significant between QAC12 at both concentrations and QAC16 (p>0.05, FIG. 6A, FIG. 6B) but significant with APC16 (p<0.05, FIG. 6C, FIG. 6D).
(§3) For the combined assay, similar concentrations of QAC18 and APC16 were prepared and 18.75 μg/ml and 37.5 μg/ml of QAC12 added (to a final volume of 100 μl) were added to 10^5 cells/mi in a 96-well plate and later incubated at 25° C. for a duration determined by the experimental protocol. Resazurin (7-Hydroxy-31-phenoxazin-3-one 10-oxide; 5 mg/ml; McBride J et al (2005) J. Clin. Microbiol.; 43: 629-634) and trypan blue (0.4 μg/ml; Mafra C S P et al (2013) Investig. Ophthalmol. Vis. Si.; 54: 6363-6372) were then added to trophozoites and cysts respectively after being exposed to the compounds and the cell viability estimated microscopically and from changes in absorbance (at 595 nm and 570 nm) respectively.

A. castellanii cysts [6] = test: Cytotoxicity assay on cysts (trypan blue); format: cell-based, Acanthamoeba castellanii ATCC 50370; conditions: Acanthamoeba castellanii
Procedure: as §1
The compounds used in this study all contained alkyl-carbon chains: three APCs [dodecyl-PC (APC12), tetradecyl-PC. (APC14) and hexadecyl-PC (APC16)] (Anatrace) and four QACs [docdecyl-TMAB (QAC12), tetradecyl-TMAB (QAC14), hexadecyl-TMAB (QAC16) and octadecyl-TMAB (QAC18)](Sigma). All were prepared to a stock concentration of 1 mg/ml and diluted as required by the experimental protocol in the cytotoxicity assays. A. castellanii trophozoites and cysts (at 10^5 cells/ml) with or without APCs or QACs (concentrations ranging from […] doubly diluted to 0.04 μg/ml to a final volume of 100 μl) in a 96-well plate were incubated at 25° C. for a duration determined by the experimental protocol.
as §3, §2

[7] = system: Acanthamoeba trophozoites; test: Checkerboard dilution QAC-APC interaction (Bliss model); format: cell-based, Acanthamoeba castellanii; conditions: APC12, APC14, APC16; 96 h at 25° C.
Procedure: Acanthamoeba trophozoites (10^5 cells/ml. n=5/treatment) treated with 100 μg/ml doubly diluted to 0.06 μg/ml of QAC12 (FIG. 7A), […], QAC16 (FIG. 7C) and QAC18 (FIG. 7D) with APC 12 (i), APCI 4 (ii) and APC16 (iii) for 96 h at 25° C. Cell viability estimated by the alamarBlue assay the dose-response curves used to produce a surface analysis (right panel) and the interaction profile determined using the Bliss model. The degree of interaction characterised by the QCScore heuristic score are produced as heat map (left panel). The colour of each cell in the heatmap and the surface analysis represents the assay response at that dose combination; red to orange, antagonistic: yellow to green, additive and blue, synergistic.
The change in potency between QAC and APC prompted us to used the checkerboard dilution method to identify synergistic interactions (FIG. 7A-D). Three interaction profiles, antagonistic (orange to red), additive (yellow to green) and synergistic (blue) were observed, with optimal synergistic interactions deemed to be significant occurring between 20-38%; (FIG. 7).

A. castellanii cysts [8] = test: Drug wash-out / alamarBlue-reversion assay, cysts; format: cell-based, Acanthamoeba castellanii ATCC 50370; conditions: Cysts; also: key: +: indicates cells reverting back to trophozoites after washout; and capable of oxidizing reduced alamarBlue from blue to pink after 8 days; −: indicates cell that did not revert to trophozoites after wash-out and unable to oxidise reduced alamarBlue solution
Procedure: For the drug kinetic assay, viability was assessed by the linked alamarBlue-reversion assay. Drug-treated cysts were washed with PBS and fresh PG medium was added to allow reversion to trophozoites for 5 days, after which, alamar blue was added and viability estimated as described above.
The cysticidal activity of QAC16 to QAC18 strongly correlated with (a) the alkyl-carbon chain lengths (Table 2) and the duration of drug contact (FIG. 8H). Like trophozoites, death was via leakage judged by 40% and 50% increase in DNA and proteins in the external milieu after 1 h (FIGS. 9A and 9B). To investigate if the cyst were viable, a complementary viability assay that involved, drug washout, incubation in PG medium to allow reversion of viable cyst to trophozoite for 7 days, and estimation of viability using the oxidation of resazurin after 6 h.

[9] = Table 4, read-out: IC50 against Acanthamoeba spp
[10] = Table 5, 72 h and 96 h at 26° C., alamar blue, read-out: IC50 Acanthamoeba trophozoites

Compound: 10-Undecylenyl-1-phosphocholine [APC11UPC]
- Increase in activity relative to saturated counterpart APC12 [1]: 3 fold
- IC50 against Acanthamoeba spp ([1]; Table 4): 3.1 ± 0.4 µg/mL

Compound: CCCCCCCCOP(=O)([O-])OCC[N+](C)(C)C [APC8, Octylphosphocholine]
- IC50 [1, 9]: 46.4 ± 2.3 µg/mL (≈ 157 µM)

Compound: CCCCCCCCCCOP(=O)([O-])OCC[N+](C)(C)C [APC10, Decylphosphocholine]
- IC50 [1, 9]: 58 ± 0.9 µg/mL (≈ 179 µM)

Compound: CC(C)CCC(CCC(C)C)OP(=O)([O-])OCC[N+](C)(C)C [APC11PC, 2,8-Dimethyl-5-Nonylphosphocholine]
- IC50 [1, 9]: > 37.5 µg/mL

Compound: CCCCCCCCCCCCOP(=O)([O-])OCC[N+](C)(C)C [APC12, Dodecylphosphocholine]
- IC50 [1, 10]: 22.9 µg/mL and 65.2 µM
- CMC value [2]: 1000.00* μM

Compound: CCCCCCCCCCCCCCOP(=O)([O-])OCC[N+](C)(C)C [APC14, Tetradecylphosphocholine]
- IC50 [1, 9]: 8.9 ± 0.2 µg/mL (≈ 23.5 µM)
- IC50 [1, 10]: 8.9 µg/mL and 23.4 µM
- CMC value [2]: 120.00* μM

- IC50 ([5]; QAC12 at 18.75 μg/ml, read-out: Estimated IC50 of APC16 with QAC12): 3.4 µg/mL
- IC50 ([5]; QAC12 at 37.5 μg/ml, read-out: Estimated IC50 of APC16 with QAC12): 2.5 µg/mL
- IC50 ([5]; without QAC12, read-out: IC50 of APC16 only control): 7.6 µg/mL
Compound: CCCCCCCCCCCCCCCCOP(=O)([O-])OCC[N+](C)(C)C [APC16, Hexadecylphosphocholine]
- IC50 [1, 9]: 7.9 ± 0.3 µg/mL (≈ 19.4 µM)
- IC50 [1, 10]: 7.9 µg/mL and 19.4 µM
- Reduction in trophozoite size relative to untreated [3]: 4 fold
- CMC value [2]: 13.00* μM
- Effect after APC16 wash-out and incubation in PG medium ([4]; 12.5 μg/ml to 100 μg/ml after 96 h): amoebostatic
- Effect after drug wash-out (inability to oxidise resazurin) ([5]; APC16 at 3.12, 4.68, 6.25 and 9.36 μg/ml combined with QAC12, not alone): cytotoxic

Compound: CCCCCCCCCCCCCCCCCCOP(=O)([O-])OCC[N+](C)(C)C [APC18, Octadecylphosphocholine]
- IC50 [1, 9]: 3 ± 0.3 µg/mL (≈ 6.89 µM)

Compound: CCCCCCCCCCCC[N+](C)(C)CCCCCCCCCCCC.[Br-] [DAB, Didodecyldimethyl ammonium bromide]
- IC50 [1, 9]: 27 ± 2.2 µg/mL

Compound: CCCCCCCCCCCCCC[N+](C)(C)C.[Br-] [QAC14, tetradecyltrimethyl ammonium bromide]
- IC50 ([1]; Table 2, read-out: IC50 A. castellanii trophozoites): 9.07 µg/mL and 27 µM
- CMC ([2]; QACs): 2.9 ± 0.1 µM
- IC50 (A. castellanii cysts [6]; Table 2, read-out: IC50 A. castellanii cysts): 22.1 µg/mL and 65 µM
- IC50 (A. castellanii cysts [6]; after 96 h, trypan blue viability assay, read-out: Estimated IC50 against matured cysts): 15 µg/mL
- Interaction profile of QAC combined with APCs [7]: less frequent and ‘noisy’
- Back transformation to trophozoites after drug wash-out (A. castellanii cysts [8]; 9.375 μg/ml, 24 h): +
- Back transformation to trophozoites after drug wash-out (A. castellanii cysts [8]; 9.375 μg/ml, 48 h): +
- Back transformation to trophozoites after drug wash-out (A. castellanii cysts [8]; 9.375 μg/ml, 72 h): +
- Back transformation to trophozoites after drug wash-out (A. castellanii cysts [8]; 18.75 μg/ml, 24 h): +
- Back transformation to trophozoites after drug wash-out (A. castellanii cysts [8]; 18.75 μg/ml, 48 h): +
- Back transformation to trophozoites after drug wash-out (A. castellanii cysts [8]; 18.75 μg/ml, 72 h): +
- Back transformation to trophozoites after drug wash-out (A. castellanii cysts [8]; 37.50 μg/ml, 24 h): +
- Back transformation to trophozoites after drug wash-out (A. castellanii cysts [8]; 37.50 μg/ml, 48 h): +
- Back transformation to trophozoites after drug wash-out (A. castellanii cysts [8]; 37.50 μg/ml, 72 h): +
- Back transformation to trophozoites after drug wash-out ([4]; 9.375 μg/ml, 1 h): +
- Back transformation to trophozoites after drug wash-out ([4]; 9.375 μg/ml, 24 h): +
- Back transformation to trophozoites after drug wash-out ([4]; 9.375 μg/ml, 48 h): +
- Back transformation to trophozoites after drug wash-out ([4]; 9.375 μg/ml, 72 h): +
- Back transformation to trophozoites after drug wash-out ([4]; 9.375 μg/ml, 96 h): +
- Back transformation to trophozoites after drug wash-out ([4]; 18.75 μg/ml, 1 h): +
- Back transformation to trophozoites after drug wash-out ([4]; 18.75 μg/ml, 24 h): +
- Back transformation to trophozoites after drug wash-out ([4]; 18.75 μg/ml, 48 h): +
- Back transformation to trophozoites after drug wash-out ([4]; 18.75 μg/ml, 72 h): +
- Back transformation to trophozoites after drug wash-out ([4]; 18.75 μg/ml, 96 h): +
- Back transformation to trophozoites after drug wash-out ([4]; 37.50 μg/ml, 1 h): +
- Back transformation to trophozoites after drug wash-out ([4]; 37.50 μg/ml, 24 h): −
- Back transformation to trophozoites after drug wash-out ([4]; 37.50 μg/ml, 48 h): −
- Back transformation to trophozoites after drug wash-out ([4]; 37.50 μg/ml, 72 h): −
- Back transformation to trophozoites after drug wash-out ([4]; 37.50 μg/ml, 96 h): −
- Amoebotoxicity after wash-out and replacement with PG medium ([4]; after 24 h at 18.75 μg/ml): amoebotoxic
